# Results published in ChEMBL document CHEMBL1201862, “PubChem BioAssay data set” (2004).
# Active and inactive are the calls of the source. For most assays here, no stated cut-off is given here; in the data, actives have a measured EC50 and inactives only a lower limit.
# Legend:
# [1] = A High Throughput Confirmatory Assay used to Identify Novel Compounds that Inhibit Mycobacterium Tuberculosis in the absence of Glycerol.; assay type: functional
# [2] = target: T1, Eukaryotic translation initiation factor 2-alpha kinase 3 (Homo sapiens, UniProt Q9NZJ5); test: Dose response cell-based high-throughput screening assay to measure PERK inhibition. [Related pubchem assays: 1416 ]; assay type: functional
# T1 sequence (Q9NZJ5 whole entry): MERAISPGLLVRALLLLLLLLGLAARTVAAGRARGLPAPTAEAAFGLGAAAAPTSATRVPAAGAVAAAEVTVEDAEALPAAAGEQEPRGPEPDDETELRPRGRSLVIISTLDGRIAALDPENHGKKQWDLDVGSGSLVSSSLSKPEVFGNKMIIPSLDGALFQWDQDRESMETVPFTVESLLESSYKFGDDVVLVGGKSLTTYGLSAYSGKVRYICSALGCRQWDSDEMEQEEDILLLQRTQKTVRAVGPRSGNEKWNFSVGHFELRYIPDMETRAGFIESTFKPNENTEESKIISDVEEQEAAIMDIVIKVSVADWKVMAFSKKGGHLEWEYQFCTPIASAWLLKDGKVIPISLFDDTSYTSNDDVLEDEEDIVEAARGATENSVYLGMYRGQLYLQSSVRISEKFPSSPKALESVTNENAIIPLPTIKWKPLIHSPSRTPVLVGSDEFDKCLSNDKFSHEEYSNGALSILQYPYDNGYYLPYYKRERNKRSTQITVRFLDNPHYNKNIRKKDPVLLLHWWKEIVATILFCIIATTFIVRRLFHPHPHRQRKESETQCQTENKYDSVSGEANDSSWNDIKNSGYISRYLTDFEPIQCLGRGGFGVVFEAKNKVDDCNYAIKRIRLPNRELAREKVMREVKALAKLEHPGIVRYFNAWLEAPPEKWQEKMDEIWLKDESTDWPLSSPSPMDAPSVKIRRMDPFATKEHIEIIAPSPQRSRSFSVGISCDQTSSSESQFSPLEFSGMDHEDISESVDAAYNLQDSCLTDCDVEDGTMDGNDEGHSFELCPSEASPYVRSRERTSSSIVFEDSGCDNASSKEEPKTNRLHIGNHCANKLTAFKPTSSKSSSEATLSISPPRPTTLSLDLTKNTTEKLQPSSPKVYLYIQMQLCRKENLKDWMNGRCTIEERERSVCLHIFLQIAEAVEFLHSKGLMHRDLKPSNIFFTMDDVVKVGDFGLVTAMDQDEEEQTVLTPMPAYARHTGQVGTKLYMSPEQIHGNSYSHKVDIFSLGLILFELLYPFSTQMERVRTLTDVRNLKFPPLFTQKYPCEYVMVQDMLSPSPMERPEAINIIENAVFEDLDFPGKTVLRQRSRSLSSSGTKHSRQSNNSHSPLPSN
# [3] = target: T1, Eukaryotic translation initiation factor 2-alpha kinase 3; test: Counterscreen assay for PERK inhibitors: Dose response cell-based high throughput screening assay to measure inhibition of PERK at 6 hours. [Related pubchem assays: 1522, 1416 ]; assay type: functional
# HeLa = test: viability loss in HeLa cells – cell-based, 24 h, cherry-picked samples, cytotoxicity control, dose response (AID 504726); assay type: functional; settings: Homo sapiens;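 further: potency for cytotoxicity as loss of luminescence signal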
# [4] = NIH3T3 cell viability loss – ATP luminescence, mouse fibroblasts, counter-screen, dose response (AID 2010); assay type: functional, cell-based;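 further: cells exposed to compound for about 90 hours before reading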
# [5] = Trypanosoma cruzi growth suppression in host cells – NIH3T3 host cells, beta-gal luminescence, confirmation (AID 2044); assay type: functional, cell-based;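 further: intracellular parasites grown in NIH/3T3 mouse fibroblasts as host cells; luminescent beta-galactosidase reporter signal from transgenic T. cruzi replicating inside host cells; inhibitors lower the luminescence signal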
# [6] = A Cell Based Secondary Assay To Explore Cytotoxicity of Compounds that Sensitize Mycobacterium Tuberculosis to Beta-Lactam Antibiotics.; assay type: functional
# [7] = A549 cell cytotoxicity, dose response, cytotoxicity control, plate reader, cherry-pick, antagonist series (AID 743412); assay type: functional, cell-based
# [8] = blockers of bursicon-stimulated LGR2 cAMP reporter – cell-based, HEK293, CRE-luciferase reporter, cherry pick, set 2, dose response (AID 743343); assay type: functional;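 further: transfected cells were stimulated with diluted bursicon conditioned medium after compound addition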
# [9] = target: Peroxisome proliferator-activated receptor gamma/Nuclear receptor coactivator 3 (Homo sapiens, UniProt P37231); test: TR-FRET dose response biochemical High Throughput Screening assay for agonists of the steroid receptor coactivator 3 (SRC-3) recruitment by the peroxisome proliferator-activated receptor gamma (PPAR gamma): non-selective agonists. [Related pubchem assays: 1301 (Confirmation screen.), 1048 (Primary screen.)]; assay type: functional
# Sequence of Peroxisome proliferator-activated receptor gamma/Nuclear receptor coactivator 3 (P37231 whole entry): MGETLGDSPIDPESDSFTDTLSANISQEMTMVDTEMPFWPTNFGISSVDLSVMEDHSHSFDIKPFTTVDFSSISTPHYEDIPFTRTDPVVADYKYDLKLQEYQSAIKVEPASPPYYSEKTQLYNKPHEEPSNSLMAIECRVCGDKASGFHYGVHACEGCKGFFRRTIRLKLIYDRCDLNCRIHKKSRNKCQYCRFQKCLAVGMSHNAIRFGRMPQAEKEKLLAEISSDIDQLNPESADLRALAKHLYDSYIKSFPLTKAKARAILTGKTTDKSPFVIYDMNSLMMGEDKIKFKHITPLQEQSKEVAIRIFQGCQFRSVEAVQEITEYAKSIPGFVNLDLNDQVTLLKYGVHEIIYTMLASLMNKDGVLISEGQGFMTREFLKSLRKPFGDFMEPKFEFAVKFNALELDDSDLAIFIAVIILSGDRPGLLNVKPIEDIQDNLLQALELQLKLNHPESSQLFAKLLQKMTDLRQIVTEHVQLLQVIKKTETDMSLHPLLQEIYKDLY
# Sequence of Peroxisome proliferator-activated receptor gamma/Nuclear receptor coactivator 3 (Q9Y6Q9 whole entry, further chain): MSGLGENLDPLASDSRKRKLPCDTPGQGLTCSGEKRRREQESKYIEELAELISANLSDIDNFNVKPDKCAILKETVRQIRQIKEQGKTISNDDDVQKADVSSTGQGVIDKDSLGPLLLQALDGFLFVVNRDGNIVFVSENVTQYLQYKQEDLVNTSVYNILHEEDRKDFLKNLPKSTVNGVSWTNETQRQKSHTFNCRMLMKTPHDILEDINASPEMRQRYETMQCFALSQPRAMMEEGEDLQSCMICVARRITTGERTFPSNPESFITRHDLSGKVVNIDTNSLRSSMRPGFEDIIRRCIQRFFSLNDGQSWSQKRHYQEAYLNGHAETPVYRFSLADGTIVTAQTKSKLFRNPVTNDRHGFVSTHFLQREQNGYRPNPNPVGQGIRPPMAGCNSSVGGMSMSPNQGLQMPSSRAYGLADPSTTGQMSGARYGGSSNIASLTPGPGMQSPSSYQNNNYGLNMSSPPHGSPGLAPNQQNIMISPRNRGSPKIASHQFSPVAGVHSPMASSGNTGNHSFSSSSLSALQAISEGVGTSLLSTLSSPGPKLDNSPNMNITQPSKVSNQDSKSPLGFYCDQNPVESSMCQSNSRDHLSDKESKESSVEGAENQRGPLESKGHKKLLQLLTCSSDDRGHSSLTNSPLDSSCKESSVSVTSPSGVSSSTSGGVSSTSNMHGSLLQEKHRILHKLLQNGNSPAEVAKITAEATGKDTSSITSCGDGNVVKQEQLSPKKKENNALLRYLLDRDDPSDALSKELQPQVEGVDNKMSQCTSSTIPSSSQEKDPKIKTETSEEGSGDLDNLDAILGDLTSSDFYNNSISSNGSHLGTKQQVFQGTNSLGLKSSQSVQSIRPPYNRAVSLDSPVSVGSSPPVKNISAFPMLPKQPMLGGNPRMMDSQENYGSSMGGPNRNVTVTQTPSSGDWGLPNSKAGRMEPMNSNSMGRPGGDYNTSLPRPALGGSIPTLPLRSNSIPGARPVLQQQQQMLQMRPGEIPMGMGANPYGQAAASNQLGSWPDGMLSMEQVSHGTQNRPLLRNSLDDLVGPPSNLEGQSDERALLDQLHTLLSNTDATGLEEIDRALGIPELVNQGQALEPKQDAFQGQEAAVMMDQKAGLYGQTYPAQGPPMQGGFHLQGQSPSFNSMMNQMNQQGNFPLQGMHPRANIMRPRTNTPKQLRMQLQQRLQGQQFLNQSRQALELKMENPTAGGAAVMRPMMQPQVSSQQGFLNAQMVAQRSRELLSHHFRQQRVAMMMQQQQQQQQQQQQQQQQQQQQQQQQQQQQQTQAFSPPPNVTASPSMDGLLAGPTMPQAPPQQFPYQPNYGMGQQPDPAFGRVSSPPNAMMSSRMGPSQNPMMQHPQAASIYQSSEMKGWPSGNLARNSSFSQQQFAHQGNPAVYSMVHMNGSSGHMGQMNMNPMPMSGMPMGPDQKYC
# [10] = luciferase reporter signal suppression in cells – H4 neuroglioma cells, luminescence, dose response (AID 1990); assay type: functional, cell-based
# [11] = luciferase reporter signal reduction – luminescence, H4-C neuroglioblastoma cells, dose response (AID 2458); assay type: functional, cell-based;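 further: H4 neuroglioblastoma cells stably carrying a luciferase reporter gene fusion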
# [12] = alpha-synuclein stem-loop translation blockers – luminescence, H4 neuroglioblastoma cells, dose confirmation, confirmation (AID 2454); assay type: functional, cell-based;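 further: H4 neuroglioblastoma cells carrying an alpha-synuclein 5'UTR luciferase reporter; potency for inhibition of the luciferase signal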
# [13] = blockade of melanocortin 4 receptor signaling – cell-based, plate reader, cherry pick, counter-screen for LGR2 antagonist project, dose response (AID 743444); assay type: functional;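 further: transfected HEK 293 cells stimulated with alpha-MSH peptide; potency of inhibitors of the alpha-MSH evoked signal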
# cells = assay type: functional, cell-based
# [14] = target: Peroxisome proliferator-activated receptor gamma/Nuclear receptor coactivator 2 (Homo sapiens, UniProt P37231); test: (§1) TR-FRET dose response biochemical High Throughput Screening assay for agonists of the steroid receptor coactivator 2 (SRC-2) recruitment by the peroxisome proliferator-activated receptor gamma (PPAR gamma): non-selective agonists. [Related pubchem assays: 1297, 1032 ]; assay type: functional
# Sequence of Peroxisome proliferator-activated receptor gamma/Nuclear receptor coactivator 2 (P37231 whole entry): as the sequence (P37231 whole entry) above
# Sequence of Peroxisome proliferator-activated receptor gamma/Nuclear receptor coactivator 2 (Q15596 whole entry, further chain): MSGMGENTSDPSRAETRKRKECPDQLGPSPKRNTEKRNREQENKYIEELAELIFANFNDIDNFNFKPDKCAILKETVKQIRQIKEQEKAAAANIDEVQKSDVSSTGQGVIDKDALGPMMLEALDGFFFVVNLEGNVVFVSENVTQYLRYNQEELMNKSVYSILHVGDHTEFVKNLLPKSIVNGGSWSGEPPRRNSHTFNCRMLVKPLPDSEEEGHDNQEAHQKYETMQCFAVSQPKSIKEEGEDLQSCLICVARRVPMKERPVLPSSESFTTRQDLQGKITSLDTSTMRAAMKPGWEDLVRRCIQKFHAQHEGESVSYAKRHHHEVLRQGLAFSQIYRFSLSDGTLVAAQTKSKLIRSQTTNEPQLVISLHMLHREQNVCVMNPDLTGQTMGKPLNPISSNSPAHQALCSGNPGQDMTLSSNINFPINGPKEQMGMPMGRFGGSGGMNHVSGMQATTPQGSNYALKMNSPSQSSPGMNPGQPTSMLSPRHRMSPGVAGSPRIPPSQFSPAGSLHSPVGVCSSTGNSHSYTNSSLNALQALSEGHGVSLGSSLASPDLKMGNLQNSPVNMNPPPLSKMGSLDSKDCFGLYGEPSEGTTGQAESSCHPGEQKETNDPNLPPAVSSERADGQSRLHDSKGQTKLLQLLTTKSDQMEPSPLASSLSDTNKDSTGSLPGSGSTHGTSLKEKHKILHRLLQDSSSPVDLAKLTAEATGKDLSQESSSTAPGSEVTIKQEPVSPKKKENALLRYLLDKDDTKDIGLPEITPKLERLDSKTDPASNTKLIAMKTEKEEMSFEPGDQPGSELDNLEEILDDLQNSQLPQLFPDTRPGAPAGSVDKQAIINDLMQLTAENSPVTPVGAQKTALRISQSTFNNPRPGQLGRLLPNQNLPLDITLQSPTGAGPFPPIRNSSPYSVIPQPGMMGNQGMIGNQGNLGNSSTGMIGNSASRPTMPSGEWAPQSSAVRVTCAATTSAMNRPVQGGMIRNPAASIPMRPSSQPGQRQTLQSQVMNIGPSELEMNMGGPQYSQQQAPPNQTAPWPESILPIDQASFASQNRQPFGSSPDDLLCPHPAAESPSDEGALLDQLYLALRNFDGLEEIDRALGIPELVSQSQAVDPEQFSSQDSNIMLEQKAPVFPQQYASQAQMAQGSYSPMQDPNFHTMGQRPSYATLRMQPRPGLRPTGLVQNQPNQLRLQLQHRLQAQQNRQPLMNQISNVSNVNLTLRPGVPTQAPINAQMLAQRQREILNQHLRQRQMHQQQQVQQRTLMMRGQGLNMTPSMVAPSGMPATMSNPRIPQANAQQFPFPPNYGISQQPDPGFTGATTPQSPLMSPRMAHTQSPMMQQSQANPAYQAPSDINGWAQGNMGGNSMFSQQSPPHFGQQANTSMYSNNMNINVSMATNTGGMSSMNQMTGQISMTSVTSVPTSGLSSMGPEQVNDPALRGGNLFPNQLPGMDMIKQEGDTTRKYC
# [15] = Luminescence Cell-Based Dose Response HTS to Identify Inhibitors of 5'UTR Stem-Loop Driven Prion Protein mRNA Translation in H4 Neuroglioblastoma Cells. [Related pubchem assays: 1827 (Project Summary), 1813 (Primary HTS)]; assay type: functional
# [16] = target: Peroxisome proliferator-activated receptor gamma/Nuclear receptor coactivator 1 (Homo sapiens, UniProt P37231); test: as §1, with “1 (SRC-1)” for “2 (SRC-2)”, “assays (depositor defined):AID1300, AID1808, AID504735, AID631]” for “assays: 1297, 1032 ]”; assay type: protein assay
# [17] = target: Melanin-concentrating hormone receptor 1 (Homo sapiens, UniProt Q99705); test: Late-stage fluorescence-based counterscreen for antagonists of the G-protein coupled receptor 7 (GPR7): cell-based dose response assay to identify antagonists of the melanin-concentrating hormone receptor 1 (MCHR1). [Related pubchem assays (depositor defined):AID1861, AID1880, AID1952, AID2148, AID2251, AID2257, AID485339]; assay type: functional;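 further: stimulated with 30 nM MCH peptide agonist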
# Sequence of Melanin-concentrating hormone receptor 1 (Q99705 whole entry): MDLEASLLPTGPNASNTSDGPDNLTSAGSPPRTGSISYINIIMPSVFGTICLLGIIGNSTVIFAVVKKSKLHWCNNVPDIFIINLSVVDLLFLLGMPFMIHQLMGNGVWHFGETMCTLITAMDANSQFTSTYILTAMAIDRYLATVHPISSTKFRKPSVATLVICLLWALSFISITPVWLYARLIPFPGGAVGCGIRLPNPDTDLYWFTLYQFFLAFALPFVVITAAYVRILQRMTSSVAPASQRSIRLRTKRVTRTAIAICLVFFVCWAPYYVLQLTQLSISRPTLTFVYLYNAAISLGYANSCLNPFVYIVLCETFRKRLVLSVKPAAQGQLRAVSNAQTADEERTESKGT
# [18] = alpha-synuclein stem-loop luciferase translation blockers – H4 neuroglioma cells, luminescence, confirmation (AID 1988); assay type: functional, cell-based
# BJ [19] = test: BJ-TERT-LT-ST fibroblast viability loss – cell-based, RAS-independent, luminescence, dose response (AID 1935); assay type: functional; settings: Homo sapiens;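 further: BJ fibroblasts immortalized with TERT plus LT and ST oncogenes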
# BJ [20] = test: growth inhibition of engineered Ras-driven BJ cells – cell-based, alamar blue fluorescence, cherrypicked samples, dose response (AID 2631); assay type: functional; settings: Homo sapiens;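 further: confirmatory dose-response assay in RAS-dependent BJ fibroblasts engineered with TERT, LT and ST, with cytotoxicity read by fluorescence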
# BJ [21] = test: BJ-TERT fibroblast viability loss – cell-based, RAS-independent, luminescence, dose response (AID 1933); assay type: functional; settings: Homo sapiens
# BJ [22] = test: cells; assay type: functional, cell-based; settings: Homo sapiens
# [23] = DRD fibroblast viability loss – cell-based, non-viral oncogenic, luminescence, dose response (AID 1934); assay type: functional; settings: Homo sapiens
structure (smiles),measurement,setting,value
Cc1nn(-c2ccccc2)c(Cl)c1C(=O)Nc1nnc(C2CCCCC2)s1,IC50,[1],> 50 µM (active)
O=C(NNC(=O)C1CCCN(S(=O)(=O)c2ccc3ccccc3c2)C1)C1CC1 (stereo not given),EC50,[2],23.2 µM (not active)
same,EC50,[3],> 55.7 µM (not active)
Cc1ccc(-c2nnn(CC(=O)NC3CCN(Cc4ccccc4)CC3)n2)cc1,AC50,HeLa,276 µM (active)
same,EC50,[4],> 60 µM (not active)
same,EC50,[5],0.141 µM (active)
O=C1C=C2C=C[C@@H]3CC2(O1)[C@H]1CCCCN31,CC50,[6],39.4 µM (active)
O=C(c1ccccc1)N1CCSc2sccc2C1=O,AC50,[7],> 52 µM (inactive)
same,AC50,[8],4 µM (active)
same,EC50,[9],> 79.4 µM (not active)
same,EC50,[10],7.87 µM (active)
same,EC50,[11],0.896 µM (active)
same,EC50,[12],1.08 µM (active)
same,AC50,[13],3.77 µM (active)
same,EC50,cells,7.25 µM (active)
same,EC50,[14],15.8 µM (not active)
same,EC50,[15],< 0.1 µM (active)
same,EC50,[16],18.9 µM (inactive)
COc1ccc(Oc2c(Cl)cnn(-c3ccc(C4CC4)cc3)c2=O)cc1,IC50,[17],6.8 µM (active)
O=C(N/N=C/c1cccs1)c1cc(-c2ccncc2)nc2ccccc12,EC50,[18],< 0.1 µM (active)
same,EC50,BJ [19],0.671 µM (active)
same,EC50,BJ [20],0.24 µM (active)
same,EC50,[10],4.61 µM (active)
same,EC50,[11],> 12 µM (inconclusive)
same,EC50,[12],> 12 µM (inconclusive)
same,EC50,cells,2.19 µM (active)
same,EC50,BJ [21],0.602 µM (active)
same,EC50,[15],0.294 µM (active)
same,EC50,BJ [22],0.712 µM (active)
same,EC50,[23],0.463 µM (active)
